{"source": "patent US6906108B2", "about": "“Extracts of vetiver oil as repellent and toxicant to ants, ticks, and cockroaches” (Board of Supervisors of Louisiana State University and …, priority 2001, dated 2005)", "key": {"[1]": {"test_system": "cat fleas (Ctenocephalides felis (Bouche))", "test": "Cat flea Petri dish filter paper bioassay (repellency and mortality)", "type": "in vivo", "experimental": "To test the effectiveness of nootkatone against fleas, cat fleas (Ctenocephalides felis (Bouche)) were collected from a flea colony at St. Gabriel, La.\nPetri dishes (5 cm diameter and 1 cm height) were prepared by lining one half of the top and the bottom with a half circle of filter paper (55 mm), and lining the other half with a second half circle of filter paper. For the treated Petri dishes, 50 mg nootkatone or 100 mg REPEL® were dissolved in 0.5 ml ethanol. […] Ten replicate Petri dishes were used for each of the treatments. The ethanol solution was added to the filter paper on the top and bottom and dried for 10 min. To place the fleas in the Petri dishes, fleas were temporarily immobilized by placing them at −20° C. for 5 min. The number of fleas in each Petri dish varied: for the 10 control Petri dishes, the average number in each dish was 10.2, with a range of 4 to 23; for 0.2 mg nootkatone, the average number in each dish was 8.5, with a range of 5 to 18; for 1 mg nootkatone, the average number in each dish was 10.6, with a range of 6 to 21; for 2 mg nootkatone, the average number in each dish was 11.1, with a range of 9 to 15 (Fleas could be counted in only 9 Petri dishes; one had too many fleas to count); and for 2.76 mg Deet, the average number in each dish was 6.7, with a range of 5 to 9.\nThe number of fleas on each side of each Petri dish was counted at 1 hr, 2 hr, 3 hr, 4 hr, 24 hr, 48 hr, 72 hr, and 96 hr."}, "[2]": {"test_system": "German cockroaches (Blattella germanica)", "test": "German cockroach Petri dish filter paper bioassay (repellency and toxicity)", "type": "in vivo", "experimental": "To test the efficacy of nootkatone against cockroaches, German cockroaches (Blattella germanica) were collected at Baton Rouge, La., the same day as the bioassay was begun.\nFor the bioassay, Petri dishes (10 cm diameter×1 cm) were used. The Petri dishes were prepared by lining one half of the top and one half of the bottom with a half circle of filter paper (125 mm), and lining the other half with a second half circle of filter paper. For the treated Petri dishes, 50 mg nootkatone and 300 mg REPEL® were dissolved in 2.0 ml ethanol. To each Petri dish was added either ethanol only, 30 mg Deet, 1 mg nootkatone, or 10 mg nootkatone. Ten replicate Petri dishes were used for each of the treatments. The ethanol solution was added to the filter paper on the top and bottom and dried for 10 min. One cockroach was added to each Petri dish. The length of the cockroaches varied from 1 to 1.5 cm. The dishes were then observed at 15 min, 30 min, 1 hr, 2 hr, 3 hr, 4 hr, 5 hr, 24 hr, 48 hr, and 120 hr."}}, "data": [{"compound": "C=C(C)C1CCC2=CC(=O)CC(C)C2(C)C1", "note": "(stereo not shown) [nootkatone, 4,4a,5,6,7,8-hexahydro-6-isopropenyl-4,4a-dimethyl-2(3H)-naphthalone]", "values": [{"measurement": "Percent Flea Mortality", "setting": "[1]; 0.2 mg per dish, 1 hr", "result": 0, "unit": "%"}, {"measurement": "Percent Flea Mortality", "setting": "[1]; 0.2 mg per dish, 2 hr", "result": 0, "unit": "%"}, {"measurement": "Percent Flea Mortality", "setting": "[1]; 0.2 mg per dish, 3 hr", "result": 0, "unit": "%"}, {"measurement": "Percent Flea Mortality", "setting": "[1]; 0.2 mg per dish, 4 hr", "result": 0, "unit": "%"}, {"measurement": "Percent Flea Mortality", "setting": "[1]; 0.2 mg per dish, 24 hr", "result": 22, "unit": "%"}, {"measurement": "Percent Flea Mortality", "setting": "[1]; 0.2 mg per dish, 48 hr", "result": 45, "unit": "%"}, {"measurement": "Percent Flea Mortality", "setting": "[1]; 0.2 mg per dish, 72 hr", "result": 72, "unit": "%"}, {"measurement": "Percent Flea Mortality", "setting": "[1]; 0.2 mg per dish, 96 hr", "result": 79, "unit": "%"}, {"measurement": "Repellent activity against fleas", "setting": "[1]; 0.2 mg, 1 mg and 2 mg per dish", "result": "no repellent activity"}, {"measurement": "Toxicant activity against fleas", "setting": "[1]; 0.2 mg, 1 mg and 2 mg per dish", "result": "only delayed toxicant activity"}, {"measurement": "Percent Flea Mortality", "setting": "[1]; 1 mg per dish, 1 hr", "result": 0, "unit": "%"}, {"measurement": "Percent Flea Mortality", "setting": "[1]; 1 mg per dish, 2 hr", "result": 0, "unit": "%"}, {"measurement": "Percent Flea Mortality", "setting": "[1]; 1 mg per dish, 3 hr", "result": 16, "unit": "%"}, {"measurement": "Percent Flea Mortality", "setting": "[1]; 1 mg per dish, 4 hr", "result": 38, "unit": "%"}, {"measurement": "Percent Flea Mortality", "setting": "[1]; 1 mg per dish, 24 hr", "result": 66, "unit": "%"}, {"measurement": "Percent Flea Mortality", "setting": "[1]; 1 mg per dish, 48 hr", "result": 92, "unit": "%"}, {"measurement": "Percent Flea Mortality", "setting": "[1]; 1 mg per dish, 72 hr", "result": 89, "unit": "%"}, {"measurement": "Percent Flea Mortality", "setting": "[1]; 1 mg per dish, 96 hr", "result": 98, "unit": "%"}, {"measurement": "Percent Flea Mortality", "setting": "[1]; 2 mg per dish, 1 hr", "result": 0, "unit": "%"}, {"measurement": "Percent Flea Mortality", "setting": "[1]; 2 mg per dish, 2 hr", "result": 0, "unit": "%"}, {"measurement": "Percent Flea Mortality", "setting": "[1]; 2 mg per dish, 3 hr", "result": 26, "unit": "%"}, {"measurement": "Percent Flea Mortality", "setting": "[1]; 2 mg per dish, 4 hr", "result": 50, "unit": "%"}, {"measurement": "Percent Flea Mortality", "setting": "[1]; 2 mg per dish, 24 hr", "result": 77, "unit": "%"}, {"measurement": "Percent Flea Mortality", "setting": "[1]; 2 mg per dish, 48 hr", "result": 84, "unit": "%"}, {"measurement": "Percent Flea Mortality", "setting": "[1]; 2 mg per dish, 72 hr", "result": 91, "unit": "%"}, {"measurement": "Percent Flea Mortality", "setting": "[1]; 2 mg per dish, 96 hr", "result": 94, "unit": "%"}, {"measurement": "Repellent activity against the cockroaches", "setting": "[2]; 1 mg per dish", "result": "weak repellent"}, {"measurement": "Percent Repellency", "setting": "[2]; 1 mg per dish, 30 min", "result": 70, "unit": "%"}, {"measurement": "Percent Repellency", "setting": "[2]; 1 mg per dish, 1 hr", "result": 60, "unit": "%"}, {"measurement": "Percent Repellency", "setting": "[2]; 1 mg per dish, 2 hr", "result": 50, "unit": "%"}, {"measurement": "Percent Repellency", "setting": "[2]; 1 mg per dish, 3 hr", "result": 78, "unit": "%"}, {"measurement": "Percent Repellency", "setting": "[2]; 1 mg per dish, 4 hr", "result": 78, "unit": "%"}, {"measurement": "Percent Repellency", "setting": "[2]; 1 mg per dish, 5 hr", "result": 78, "unit": "%"}, {"measurement": "Percent Repellency", "setting": "[2]; 1 mg per dish, 24 hr", "result": 56, "unit": "%"}, {"measurement": "Percent Repellency", "setting": "[2]; 1 mg per dish, 48 hr", "result": 78, "unit": "%"}, {"measurement": "Percent Repellency", "setting": "[2]; 1 mg per dish, 120 hr", "result": 100, "unit": "%"}, {"measurement": "Percent Repellency", "setting": "[2]; 10 mg per dish, 30 min", "result": 90, "unit": "%"}, {"measurement": "Percent Repellency", "setting": "[2]; 10 mg per dish, 1 hr", "result": 100, "unit": "%"}, {"measurement": "Percent Repellency", "setting": "[2]; 10 mg per dish, 2 hr", "result": 100, "unit": "%"}, {"measurement": "Percent Repellency", "setting": "[2]; 10 mg per dish, 3 hr", "result": 100, "unit": "%"}, {"measurement": "Percent Repellency", "setting": "[2]; 10 mg per dish, 4 hr", "result": 100, "unit": "%"}, {"measurement": "Percent Repellency", "setting": "[2]; 10 mg per dish, 5 hr", "result": 100, "unit": "%"}, {"measurement": "Percent Repellency", "setting": "[2]; 10 mg per dish, 24 hr", "result": 100, "unit": "%"}, {"measurement": "Percent Repellency", "setting": "[2]; 10 mg per dish, 48 hr", "result": 100, "unit": "%"}, {"measurement": "Percent Repellency", "setting": "[2]; 10 mg per dish, 120 hr", "result": 100, "unit": "%"}, {"measurement": "Number of cockroach deaths compared with the control", "setting": "[2]; any of the treatments (30 mg Deet; 1 mg or 10 mg nootkatone), up to 120 hr", "result": "not significantly different from the control"}]}]}
